Measurements published in patent publication US4731451A, “N-((2-oxo-3(2H)benzothiazolyl)methyl)-2-chloroacetanilides” (Monsanto Company, priority 1980, dated 1988).

How the values were obtained:
Assay in all cases: Pre-emergent herbicidal activity (Table II)
Assay type in all cases: in vivo
Conditions in all cases: 2-3 weeks
Yellow Nutsedge = tested on: Yellow Nutsedge
Protocol: (§1) The pre-emergence tests are conducted as follows:
(§2) A good grade of top soil is placed in aluminum pans and compacted to a depth of three-eighths to one-half inch from the top of the pan. On the top of the soil is placed a predetermined number of seeds or vegetative propagules of various plant species. The soil required to level fill the pans after seeding or adding vegetative propagules is weighed into a pan. A known amount of the active ingredient applied in a solvent or as a wettable powder suspension and the soil are thoroughly mixed, and used as a cover layer for prepared pans. After treatment, the pans are moved into a greenhouse bench where they are watered from below as needed to give adequate moisture for germination and growth.
(§3) Approximately 2-3 weeks after seeding and treating, the plants are observed and the results recorded. The herbicidal rating is obtained by means of fixed scale based on the percent injury of each plant species. The ratings are defined as follows: […]
(§4) The plant species utilized in one set of tests, the data for which are shown in Table II, are identified by letter in accordance with the following legend: […]

Smartweed = tested on: Smartweed
Protocol: as §1, §2, §3, §4

Canada Thistle = tested on: Canada Thistle
Protocol: as §1, §2, §3, §4

Johnsongrass = tested on: Johnsongrass
Protocol: as §1, §2, §3, §4

Barnyardgrass = tested on: Barnyardgrass
Protocol: as §1, §2, §3, §4

Morningglory = tested on: Morningglory
Protocol: as §1, §2, §3, §4

Quackgrass = tested on: Quackgrass
Protocol: as §1, §2, §3, §4

Downy Brome = tested on: Downy Brome
Protocol: as §1, §2, §3, §4

Cocklebur = tested on: Cocklebur
Protocol: as §1, §2, §3, §4

Lambsquarters = tested on: Lambsquarters
Protocol: as §1, §2, §3, §4

Velvetleaf = tested on: Velvetleaf
Protocol: as §1, §2, §3, §4
Also: ranges in brackets are in %.

Row | SMILES | Herbicidal rating (Yellow Nutsedge; 5.6 kg/ha) | Herbicidal rating (Yellow Nutsedge; 11.2 kg/ha) | Herbicidal rating (Smartweed; 5.6 kg/ha) | Herbicidal rating (Smartweed; 11.2 kg/ha) | Herbicidal rating (Canada Thistle; 5.6 kg/ha) | Herbicidal rating (Canada Thistle; 11.2 kg/ha) | Herbicidal rating (Johnsongrass; 5.6 kg/ha) | Herbicidal rating (Johnsongrass; 11.2 kg/ha) | Herbicidal rating (Barnyardgrass; 5.6 kg/ha) | Herbicidal rating (Barnyardgrass; 11.2 kg/ha) | Herbicidal rating (Morningglory; 5.6 kg/ha) | Herbicidal rating (Morningglory; 11.2 kg/ha) | Herbicidal rating (Quackgrass; 5.6 kg/ha) | Herbicidal rating (Quackgrass; 11.2 kg/ha) | Herbicidal rating (Downy Brome; 5.6 kg/ha) | Herbicidal rating (Downy Brome; 11.2 kg/ha) | Herbicidal rating (Cocklebur; 5.6 kg/ha) | Herbicidal rating (Lambsquarters; 5.6 kg/ha) | Herbicidal rating (Lambsquarters; 11.2 kg/ha) | Herbicidal rating (Velvetleaf; 5.6 kg/ha) | further results
1 | CCC1=C(N(Cn2c(=O)sc3ccccc32)C(=O)CCl)C(CC)CCC1 (stereo not drawn) [Example 5, N--[(2-oxo-3(2H)--benzothiazolyl)methyl]-N--(2,6-diethyl-1-cyclohexen-1-yl)-2-chloro-acetamide] | 0 (0-24) | 0 (0-24) | 0 (0-24) | 0 (0-24) | 0 (0-24) | 0 (0-24) | 0 (0-24) | 0 (0-24) | 1 (25-49) | 1 (25-49) | 0 (0-24) | 0 (0-24) | 0 (0-24) | 0 (0-24) | 0 (0-24) | 0 (0-24) | 0 (0-24) | 1 (25-49) | 1 (25-49) | 0 (0-24) | Herbicidal rating (Cocklebur; 11.2 kg/ha): 0 (0-24); Herbicidal rating (Velvetleaf; 11.2 kg/ha): 0 (0-24)
2 | CC1=C(N(Cn2c(=O)sc3cc(Br)ccc32)C(=O)CCl)C(C)CCC1 (stereo not drawn) [Example 7, N--[(6-bromo-2-oxo-3(2H)--benzothiazolyl)methyl]-N--(2,6-dimethyl-1-cyclohexen-1-yl)-2-chloroacetamide] | 0 (0-24) | 0 (0-24) | 0 (0-24) | 0 (0-24) | 0 (0-24) | 0 (0-24) | 0 (0-24) | 0 (0-24) | 1 (25-49) | 1 (25-49) | 0 (0-24) | 0 (0-24) | 0 (0-24) | 0 (0-24) | 0 (0-24) | 0 (0-24) | 0 (0-24) | 0 (0-24) | 1 (25-49) | 0 (0-24) | Herbicidal rating (Cocklebur; 11.2 kg/ha): 0 (0-24); Herbicidal rating (Velvetleaf; 11.2 kg/ha): 0 (0-24)
3 | CCOc1ccc2c(c1)sc(=O)n2CN(C(=O)CCl)C1=C(C)C(C)CCC1 (stereo not drawn) [Example 8, N--[(6-ethoxy-2-oxo-3(2H)--benzothiazolyl)methyl]-N--(2,3-dimethyl-1-cyclohexen-1-yl)-2-chloroacetamide] | 0 (0-24) | 0 (0-24) | 0 (0-24) | 0 (0-24) | 0 (0-24) | 0 (0-24) | 0 (0-24) | 0 (0-24) | 1 (25-49) | 0 (0-24) | 0 (0-24) | 0 (0-24) | 0 (0-24) | 0 (0-24) | 0 (0-24) | 0 (0-24) | 0 (0-24) | 0 (0-24) | 0 (0-24) | 0 (0-24) | Herbicidal rating (Velvetleaf; 11.2 kg/ha): 0 (0-24)
4 | CC1=C(N(Cn2c(=O)oc3ccccc32)C(=O)CCl)C(C)CCC1 (stereo not drawn) [Example 11, N--[(2-oxo-3(2H)--benzoxazolyl)methyl]-N--(2,6-dimethyl-1-cyclohexen-1-yl)-2-chloro-amide] | 3 (75-100) | 1 (25-49) | 0 (0-24) | 0 (0-24) | 0 (0-24) | 0 (0-24) | 0 (0-24) | 0 (0-24) | 3 (75-100) | 3 (75-100) | 0 (0-24) | 0 (0-24) | 1 (25-49) | 3 (75-100) | 3 (75-100) | 3 (75-100) | 0 (0-24) | 2 (50-74) | 1 (25-49) | 0 (0-24) | Herbicidal rating (Cocklebur; 11.2 kg/ha): 0 (0-24); Herbicidal rating (Velvetleaf; 11.2 kg/ha): 0 (0-24)
